Results reported in ChEMBL document CHEMBL2434927, “Indenoindoles and cyclopentacarbazoles as bioactive compounds: synthesis and biological applications” (Eur J Med Chem, 2013).
pIC50: −log10 of the molar value.

Columns and labels:
[1] = biological target: Casein kinase II (Homo sapiens, UniProt P19784+P67870+P68400); assay: Inhibition of human CK2; type: protein-complex assay
[2] = biological target: T1, Receptor-type tyrosine-protein kinase FLT3 (Homo sapiens, UniProt P36888); assay: Inhibition of human FLT3
T1 sequence (P36888 whole entry): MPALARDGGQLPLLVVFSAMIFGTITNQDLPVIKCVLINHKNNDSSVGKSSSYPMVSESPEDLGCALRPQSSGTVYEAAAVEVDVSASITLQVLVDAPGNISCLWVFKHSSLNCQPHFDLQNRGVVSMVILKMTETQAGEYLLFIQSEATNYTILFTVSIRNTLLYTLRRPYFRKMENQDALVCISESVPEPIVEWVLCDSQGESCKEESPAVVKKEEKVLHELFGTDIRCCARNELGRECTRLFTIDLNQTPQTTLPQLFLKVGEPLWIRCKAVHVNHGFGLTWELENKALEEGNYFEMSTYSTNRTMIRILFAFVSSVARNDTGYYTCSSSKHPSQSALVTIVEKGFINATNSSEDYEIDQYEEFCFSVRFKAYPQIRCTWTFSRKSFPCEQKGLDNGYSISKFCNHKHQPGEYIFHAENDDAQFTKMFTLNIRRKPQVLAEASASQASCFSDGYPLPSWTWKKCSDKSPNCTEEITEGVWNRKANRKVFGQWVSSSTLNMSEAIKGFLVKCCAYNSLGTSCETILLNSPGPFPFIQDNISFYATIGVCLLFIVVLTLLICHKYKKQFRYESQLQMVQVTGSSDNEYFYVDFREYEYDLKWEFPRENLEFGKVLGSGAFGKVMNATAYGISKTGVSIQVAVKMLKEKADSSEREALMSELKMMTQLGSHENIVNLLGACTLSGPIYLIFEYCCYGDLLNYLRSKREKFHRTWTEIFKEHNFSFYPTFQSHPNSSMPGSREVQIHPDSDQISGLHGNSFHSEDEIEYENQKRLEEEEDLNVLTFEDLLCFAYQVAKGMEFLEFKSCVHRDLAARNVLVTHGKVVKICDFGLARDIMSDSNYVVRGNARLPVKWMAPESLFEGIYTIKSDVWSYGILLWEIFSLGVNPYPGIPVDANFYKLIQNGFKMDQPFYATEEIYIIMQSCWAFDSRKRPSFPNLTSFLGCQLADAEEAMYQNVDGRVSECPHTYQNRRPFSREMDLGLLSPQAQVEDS

[3] = biological target: T2, NUAK family SNF1-like kinase 1 (Homo sapiens, UniProt O60285); assay: Inhibition of human ARK5
T2 sequence (O60285 whole entry): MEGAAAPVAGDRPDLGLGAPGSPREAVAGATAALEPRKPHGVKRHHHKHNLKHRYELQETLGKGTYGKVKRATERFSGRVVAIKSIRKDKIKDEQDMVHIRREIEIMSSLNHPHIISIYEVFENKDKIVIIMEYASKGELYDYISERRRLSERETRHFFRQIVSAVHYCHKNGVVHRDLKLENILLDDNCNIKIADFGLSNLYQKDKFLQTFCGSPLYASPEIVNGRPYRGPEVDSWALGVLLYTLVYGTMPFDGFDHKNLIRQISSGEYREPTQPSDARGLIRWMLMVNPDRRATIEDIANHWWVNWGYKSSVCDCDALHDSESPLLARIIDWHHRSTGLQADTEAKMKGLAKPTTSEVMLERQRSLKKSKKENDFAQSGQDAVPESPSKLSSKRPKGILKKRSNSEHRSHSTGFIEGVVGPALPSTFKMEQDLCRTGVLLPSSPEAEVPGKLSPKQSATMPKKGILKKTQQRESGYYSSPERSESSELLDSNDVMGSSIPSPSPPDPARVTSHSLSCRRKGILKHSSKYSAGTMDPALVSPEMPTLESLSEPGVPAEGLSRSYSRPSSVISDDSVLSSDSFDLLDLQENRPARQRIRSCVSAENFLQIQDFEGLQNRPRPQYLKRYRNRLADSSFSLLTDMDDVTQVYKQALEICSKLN

[4] = Cytotoxicity against human LCLC cells assessed as growth inhibition; type: functional
[5] = system: A-427; assay: Cytotoxicity against human A427 cells assessed as growth inhibition; type: functional
[6] = system: MCF7; assay: Cytotoxicity against human MCF7 cells assessed as growth inhibition; type: functional
[7] = system: SISO; assay: Cytotoxicity against human SISO cells assessed as growth inhibition; type: functional
[8] = Cytotoxicity against human KYSE-70 cells assessed as growth inhibition; type: functional
[9] = system: 5637; assay: Cytotoxicity against human 5637 cells assessed as growth inhibition; type: functional
[10] = system: MC-38; assay: Antitumor activity against mouse C38 cells allografted in B6D2F1 mouse assessed as tumor regression at 25 mg/kg, iv administered on days 10, 17 and 24 measured for 10 weeks relative to control; type: functional

Chain of Casein kinase II (P67870 whole entry): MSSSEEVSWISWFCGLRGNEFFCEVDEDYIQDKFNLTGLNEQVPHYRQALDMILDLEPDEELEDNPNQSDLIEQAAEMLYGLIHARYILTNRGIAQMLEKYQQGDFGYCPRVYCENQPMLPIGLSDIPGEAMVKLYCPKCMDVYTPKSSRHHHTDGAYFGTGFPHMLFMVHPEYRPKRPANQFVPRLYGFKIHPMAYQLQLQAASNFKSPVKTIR
Chain of Casein kinase II (P68400 whole entry): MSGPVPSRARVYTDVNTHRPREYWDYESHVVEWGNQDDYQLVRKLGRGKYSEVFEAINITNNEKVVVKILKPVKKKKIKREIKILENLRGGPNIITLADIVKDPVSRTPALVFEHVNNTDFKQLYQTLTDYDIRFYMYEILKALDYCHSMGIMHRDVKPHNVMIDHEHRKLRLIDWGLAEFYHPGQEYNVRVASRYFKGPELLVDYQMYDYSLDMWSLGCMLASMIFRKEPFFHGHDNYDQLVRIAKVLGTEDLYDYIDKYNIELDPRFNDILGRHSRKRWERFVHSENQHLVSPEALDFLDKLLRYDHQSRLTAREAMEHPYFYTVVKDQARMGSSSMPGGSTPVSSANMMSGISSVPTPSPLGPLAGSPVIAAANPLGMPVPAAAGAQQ
Chain of Casein kinase II (P19784 whole entry): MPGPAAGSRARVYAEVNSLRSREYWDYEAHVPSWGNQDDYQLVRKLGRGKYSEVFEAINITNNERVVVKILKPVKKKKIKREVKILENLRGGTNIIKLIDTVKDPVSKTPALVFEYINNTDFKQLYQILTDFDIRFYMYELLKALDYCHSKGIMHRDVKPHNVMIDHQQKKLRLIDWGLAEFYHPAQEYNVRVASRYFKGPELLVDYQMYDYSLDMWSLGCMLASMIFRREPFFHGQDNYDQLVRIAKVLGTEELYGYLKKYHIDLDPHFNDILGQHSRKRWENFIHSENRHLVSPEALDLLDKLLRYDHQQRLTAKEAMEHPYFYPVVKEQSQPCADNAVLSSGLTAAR

For `O=c1ccc(=O)c2c1c1c(=O)c3ccccc3c1n2Cc1ccccc1`, the pIC50 [1] was 5.83.
`CC(C)n1c2c(c3c1-c1ccccc1C3=O)C(=O)CCC2=O` showed a pIC50 [2] of 6.74, a pIC50 [3] of 6.24 and a GI [4] of 1.3 µM. The GI [5] was 1.3 µM, the GI [6] was 1.3 µM and the GI [7] was 1.3 µM. It also gave a GI [8] of 1.3 µM and a GI [9] of 1.3 µM.
Work on `C#C[C@H](C)O/N=C1/c2cc(OC)c(OC)cc2-c2[nH]c3ccc(OCCN(C)C)cc3c21` yielded an Activity [10] of 100%.
